# Test results reported in patent publication US8445680B2, “Tetrahydrothieno pyridines” (Merck Sharp & Dohme Corp., priority 2008, dated 2013).
# Counter-ions that a name gives are not always drawn.
# Target: T1, FLAG-tagged full length PHD2 (Homo sapiens, UniProt Q9GZT9)
# T1 construct: FLAG-tagged full length PHD2; FLAG; made in house; host or cells: baculovirus-infected Sf9 cells
# Assay: PHD2 inhibition assay (time resolved fluorescence, HIF-1α peptide hydroxylation, VHL detection)
# Format: biochemical
# Conditions: 0.2 μM 2-oxoglutarate, 0.5 μM HIF-1α peptide, 2 hr at room temperature; read-out: PHD2 Activity (PHD2 binding activity expressed as IC50)
# Protocol: To each well of a 96-well plate was added 1 μL of test compound in DMSO and 20 μl of assay buffer (50 mM Tris pH 7.4/0.01% Tween-20/0.1 mg/ml bovine serum albumin/10 μM ferrous sulfate/1 mM sodium ascorbate/20 μg/ml catalase) containing 0.15 μg/ml FLAG-tagged full length PHD2 expressed in and purified from baculovirus-infected Sf9 cells. After a 30 min preincubation at room temperature, the enzymatic reactions were initiated by the addition of 4 μL of substrates (final concentrations of 0.2 μM 2-oxoglutarate and 0.5 μM HIF-1α peptide biotinyl-[…]).
# T1 sequence (Q9GZT9 whole entry): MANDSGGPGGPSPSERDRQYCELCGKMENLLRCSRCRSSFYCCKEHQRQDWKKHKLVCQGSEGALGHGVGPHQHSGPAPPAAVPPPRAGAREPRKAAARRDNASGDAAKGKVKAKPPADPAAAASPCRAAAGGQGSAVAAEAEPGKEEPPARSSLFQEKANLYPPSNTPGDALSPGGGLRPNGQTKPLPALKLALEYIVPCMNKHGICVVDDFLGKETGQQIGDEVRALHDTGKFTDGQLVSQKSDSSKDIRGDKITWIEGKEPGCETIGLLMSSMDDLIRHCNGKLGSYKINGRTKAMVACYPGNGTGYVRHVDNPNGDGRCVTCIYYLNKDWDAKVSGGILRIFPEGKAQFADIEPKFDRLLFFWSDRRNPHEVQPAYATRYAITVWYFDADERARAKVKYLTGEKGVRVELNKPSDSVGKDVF
row,SMILES,IC50
1,"O=C(O)CNC(=O)c1c(O)c2c(n(Cc3ccc(-c4ccc(Cl)cc4)cc3)c1=O)CSC2 [Example 30, N-({1-[(4′-chlorobiphenyl-4-yl)methyl]-4-hydroxy-2-oxo-1,2,5,7-tetrahydrothieno[3,4-b]pyridin-3-yl}carbonyl)glycine]",≤ 10 nM
2,"O=C(O)CNC(=O)c1c(O)c2c(n(Cc3ccc(Cl)c(C(F)(F)F)c3)c1=O)CSC2 [Example 18, N-({1-[4-chloro-3-(trifluoromethyl)benzyl]-4-hydroxy-2-oxo-1,2,5,7-tetrahydrothieno[3,4-b]pyridin-3-yl}carbonyl)glycine]",≤ 10 nM
3,"O=C(O)CNC(=O)c1c(O)c2c(n(Cc3cnc(-c4cc(F)ccc4F)cn3)c1=O)CSC2 [Example 56, N-[(l-{[5-(2,5-difluorophenyl)pyrazin-2-yl]methyl}-4-hydroxy-2-oxo-1,2,5,7-tetrahydrothieno[3,4-b]pyridin-3-yl)carbonyl]glycine]",≤ 10 nM
4,"O=C(O)CNC(=O)c1c(O)c2c(n(Cc3ccc(-c4ccc(F)cc4)nc3)c1=O)CSC2 [Example 40, N-[(1-{[6-(4-fluorophenyl)pyridinium-3-yl]methyl}-4-hydroxy-2-oxo-1,2,5,7-tetrahydrothieno[3,4-b]pyridin-3-yl)carbonyl]glycine trifluoroacetate]",≤ 10 nM
5,"O=C(O)CNC(=O)c1c(O)c2c(n(Cc3ccc(-n4cccn4)cc3)c1=O)CSC2 [Example 23, N-({4-hydroxy-2-oxo-1-[4-(1H-pyrazol-1-yl)benzyl]-1,2,5,7-tetrahydrothieno[3,4-b]pyridin-3-yl}carbonyl)glycine]",≤ 10 nM
6,"O=C(O)CNC(=O)c1c(O)c2c(n(Cc3ccc(-c4ccccc4F)nc3)c1=O)CSC2 [Example 43, N-[(l-{[6-(2-fluorophenyl)pyridin-3-yl]methyl}-4-hydroxy-2-oxo-1,2,5,7-tetrahydrothieno[3,4-b]pyridin-3-yl)carbonyl]glycine]",≤ 10 nM
7,"O=C(O)CNC(=O)c1c(O)c2c(n(Cc3ccc(-c4ccccc4C(F)(F)F)nc3)c1=O)CSC2 [Example 45, N-{[4-hydroxy-2-oxo-1-({6-[2-(trifluoromethyl)phenyl]pyridinium-3-yl}methyl)-1,2,5,7-tetrahydrothieno[3,4-b]pyridin-3-yl]carbonyl}glycine trifluoroacetate]",≤ 10 nM

# Second part, the molecule after the results:
row,IC50,SMILES
1,≤ 10 nM,"O=C(O)CNC(=O)c1c(O)c2c(n(Cc3ccc(OC(F)(F)F)cc3)c1=O)CS(=O)(=O)C2 [Example 65, N-({4-hydroxy-6,6-dioxido-2-oxo-1-[4-(trifluoromethoxy)benzyl]-1,2,5,7-tetrahydrothieno[3,4-b]pyridin-3-yl}carbonyl)glycine]"
2,≤ 10 nM,"Cc1ccc(-c2ccc(Cn3c4c(c(O)c(C(=O)NCC(=O)O)c3=O)CS(=O)(=O)C4)cc2)cc1 [Example 58, N-({4-hydroxy-1-[(4′-methylbiphenyl-4-yl)methyl]-6,6-dioxido-2-oxo-1,2,5,7-tetrahydrothieno[3,4-b]pyridin-3-yl}carbonyl)glycine]"
3,≤ 10 nM,"Cc1ccc(-c2ccc(Cn3c4c(c(O)c(C(=O)NCC(=O)O)c3=O)C[S+]([O-])C4)cc2)cc1 (stereo not shown) [Example 59, N-({4-hydroxy-1-[(4′-methylbiphenyl-4-yl)methyl]-6-oxido-2-oxo-1,2,5,7-tetrahydrothieno[3,4-b]pyridin-3-yl}carbonyl)glycine]"
